In test [1] the test system is neuropathic pain after L5-L6 spinal nerve injury. The experiment in a line: Spinal nerve ligation (SNL, Chung) neuropathic pain model, von Frey test. Format: in vivo, rat. As to conditions: 30 mg/kg i.p.; for % MPE (% Maximum Possible Effect): rat, 18 days after L5-L6 spinal nerve injury, von Frey test 2 hrs post-dose, number of experiments in brackets; for anti-allodynic effect on paw withdrawal threshold and % MPE: rats 18 days after L5-L6 spinal nerve injury, mechanical allodynia 2 hrs post-dose, p<0.001 vs vehicle. From the text:
This example describes the use of an animal model for testing compounds of the disclosure for their ability to reduce neuropathic pain. For the neuropathic pain model (spinal nerve ligation, SNL) also known as the Chung model, rats are anesthetized with isoflurane and placed on a heating pad. Using aseptic techniques, the L5 and L6 spinal nerves are exposed, ligated and transected (Kim, S. H. and Chung, J. […] Muscle and skin are closed with 4-0 Polydiaxone and wound clips, respectively. Allodynia is assessed 2-4 weeks post SNL surgery and only rats that develop allodynia as defined by a significant decrease in their mechanical threshold using von Frey filaments are used. Tactile allodynia is assessed with calibrated von Frey filaments (Stoelting Co, Wood Dale, Ill.), using an up-down paradigm (Chaplan, S. R., et al. (1994) J. Neurosci. Methods, 53 (1): 55-63). […] Test compounds are administered to the surgically treated rats either orally or I.P, and pain measurements are assessed at post-dosing intervals that correspond to near-maximal peak plasma concentrations for the test compound and specific mode of administration. The action of test compounds 175, 180, and 198 was evaluated in the Chung model after surgery to induce neuropathy. […] (10 ml/kg) was administered as a positive control group. Vehicle and test compounds were dissolved in 10% DMSO, 20% Tween-80 and 40% PEG-400. On the day before treatment, the neuropathic pain basal response was measured by von Frey test and the rats were randomized based on PWT responses. A cut-off of <4.0 g was considered before selection of animals for treatment. On the day of treatment, the test compounds were administered at 30 mg/kg i.p. (10 ml/kg) dissolved in 10% DMSO, 20% Tween-80, 40% PEG-400. […] (10 ml/kg). The mechanical allodynia was measured at 2 hrs post-dose. Results for compound 175 are shown in FIGS. 1 and 2 where data are presented as paw withdrawal threshold (PWT in g) (FIG. 1) and percentage of maximal possible effect (% MPE) (FIG. 2). Each bar represents the mean±SEM of 8 rats.

A further test deals with T1, human TRPA1 (Homo sapiens, UniProt O75762).
T1 construct: expressed in transfected cells
T1 sequence (O75762 whole entry): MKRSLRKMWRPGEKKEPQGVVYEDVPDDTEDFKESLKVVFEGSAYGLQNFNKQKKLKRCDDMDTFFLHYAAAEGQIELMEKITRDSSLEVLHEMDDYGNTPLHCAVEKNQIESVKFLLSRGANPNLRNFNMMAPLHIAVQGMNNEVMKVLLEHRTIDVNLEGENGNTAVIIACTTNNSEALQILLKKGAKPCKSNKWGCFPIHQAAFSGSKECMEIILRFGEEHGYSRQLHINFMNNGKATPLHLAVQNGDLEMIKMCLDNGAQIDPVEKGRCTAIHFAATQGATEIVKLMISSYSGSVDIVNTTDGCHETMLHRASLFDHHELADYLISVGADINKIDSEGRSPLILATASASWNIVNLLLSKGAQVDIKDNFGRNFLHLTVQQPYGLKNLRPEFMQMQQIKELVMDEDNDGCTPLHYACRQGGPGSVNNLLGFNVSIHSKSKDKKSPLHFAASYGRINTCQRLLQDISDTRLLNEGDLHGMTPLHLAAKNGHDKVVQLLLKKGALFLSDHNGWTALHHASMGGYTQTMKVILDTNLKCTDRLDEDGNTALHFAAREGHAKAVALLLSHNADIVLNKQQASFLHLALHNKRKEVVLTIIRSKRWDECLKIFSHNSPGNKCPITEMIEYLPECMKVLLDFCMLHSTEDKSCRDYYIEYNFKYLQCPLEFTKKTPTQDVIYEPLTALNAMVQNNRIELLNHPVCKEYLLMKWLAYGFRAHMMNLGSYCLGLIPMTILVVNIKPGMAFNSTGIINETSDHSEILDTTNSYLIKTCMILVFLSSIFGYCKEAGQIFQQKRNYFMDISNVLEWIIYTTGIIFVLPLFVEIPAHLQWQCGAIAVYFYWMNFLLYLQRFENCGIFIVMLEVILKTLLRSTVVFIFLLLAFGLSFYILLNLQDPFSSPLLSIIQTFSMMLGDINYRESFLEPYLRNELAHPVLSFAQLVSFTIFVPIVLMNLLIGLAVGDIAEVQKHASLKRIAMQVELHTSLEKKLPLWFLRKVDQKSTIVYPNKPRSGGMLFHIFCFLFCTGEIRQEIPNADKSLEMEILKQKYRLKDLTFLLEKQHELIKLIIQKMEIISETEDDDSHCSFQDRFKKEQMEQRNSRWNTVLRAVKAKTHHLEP
The test is described as follows: Cell-based functional intracellular calcium ([Ca2+]i) assay, Fluo-4/Fluo-8, FlexStation, challenge with reference TRPA1 agonist (FFA, AITC or 4-HNE). A digest of the protocol: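 Doxycycline-induced (1 μg/ml) HEK293 expressing human TRPA1, with 5 μM ruthenium red during induction, loaded with Fluo-4 or Fluo-8 plus 2 mM probenecid; FlexStation read at 20-25° C, sometimes with 0.1% BSA.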
Background: Calcium flux is commonly read through the fluorescence of an indicator in the cells.

The test system of test [2] is paclitaxel-induced neuropathic pain. The experiment in a line: Paclitaxel chemotherapy-induced neuropathic pain model, von Frey filaments. It is filed as in vivo. As to conditions: rat paclitaxel model, 10 mg/kg i.p.; for % MPE for reversing paclitaxel induced neuropathic pain: mechanical allodynia (von Frey). From the text:
Chemotherapy-induced peripheral neuropathy is one of the most serious complications of anti-cancer drug therapy. […] The TRPA1 antagonist, AD_09, has been reported to reduce neuropathic pain in the oxaliplatin model (Nativi, C, et al. (2013) Scientific Reports 3, 2005, 1-10.)
The studies described below provide a method to test compounds of the present invention in the established rat model of paclitaxel-induced neuropathic pain (Flatters, S J and Bennett, G, Pain (2004) 109:150-161) and provide evidence for efficacy for one compound of the present invention. In this procedure, male Sprague-Dawley rats received i.p. injections of 1 mg/kg paclitaxel or vehicle solution every other day for a total of 4 injections (Day 0, 2, 4 and 6). After receiving injections on even-number experimental days, the rats were tested for mechanical and cold allodynia on odd-number experimental days. After the full development of allodynia after the last paclitaxel injection on day 11, one subgroup of the rats (7 rats per treatment group) received an oral dose or i.p. injection of compound of the present invention (e.g., 1, 3, 10 or 30 mg/kg) or its vehicle solution. On the day of treatment, the test compound was administered at 10 mg/kg i.p. (2 ml/kg) dissolved in 10% DMSO, 20% Tween-80, 40% PEG-400. Additional test groups included vehicle control and gabapentin at 10, 30 and 100 mg/kg i.p. (2 ml/kg). The mechanical allodynia was measured at 2 hrs post-dose for compound 271. Mechanical allodynia was measured using the Von Frey filaments to determine the paw withdrawal threshold for each animal and assess the effects of the test compound-s to reduce pain. Rats were tested for mechanical and/or cold allodynia 1 hour after dosing.
Rats can be tested at approximately 2 hour intervals thereafter (time interval dependent on the effect) as long as the effect of TRPA1 antagonist lasts. In some cases, more than one treatment of the compound of the present invention (TRPA1 antagonist) can be given before or after the effect of the previous dose subsides to provide repetitive dosing regimens.

[3] abbreviates: HEK293 cells expressing human TRPA1, IC50 class after addition of reference TRPA1 agonist (FFA, AITC or 4-HNE), read-out: human TRPA1-HEK Activity.

pIC50: −log10 of the molar value. Read-outs that look alike come from different tables or passages of the source. Bounds are passed on as bounds.

In the case of `O=C(c1cc(-c2cccnc2)n(-c2ccc(C(F)(F)F)c(F)c2)n1)N1CCC2(CC1)C(=O)NCN2c1ccc(F)cc1` [Compound 180], in test [1], the “% MPE (% Maximum Possible Effect)” value is given as 65 (1) %; the “anti-allodynic effect on paw withdrawal threshold and % MPE” value is recorded as “significant anti-allodynic effect”. In addition, on human TRPA1 (setting [3]), the pIC50 was 5.30 to 9.00.

As to `O=C(c1cc(-c2cccnc2)n(-c2ccc(F)c(C(F)(F)F)c2)n1)N1CCC(n2c(=O)[nH]c3ccc(F)c(F)c32)CC1` [Compound 271], the “anti-allodynic effect on paw withdrawal threshold” value in test [2] (2 hrs post-dose, p<0.05) is given as “significant anti-allodynic effect”. Also, the “% MPE for reversing paclitaxel induced neuropathic pain” value in test [2] is 49.1 % MPE.

In the case of `NCC1(CC(=O)O)CCCCC1` [gabapentin, reference compound], in test [2], the “% MPE for reversing paclitaxel induced neuropathic pain” value was found to be 34.8 % MPE.

Take `O=C(c1cc(-c2cccnc2)n(-c2cc(F)c(F)c(F)c2)n1)N1CCC(n2c(=O)[nH]c3ccc(F)c(F)c32)CC1` [Compound 198]: in test [1], the “% MPE (% Maximum Possible Effect)” value was 41 (1) %; the “anti-allodynic effect on paw withdrawal threshold and % MPE” value is given as “significant anti-allodynic effect”. Besides, the pIC50 on human TRPA1 (setting [3]) was 5.30 to 9.00.

Turning to `O=C(c1cc(-c2ccncc2)n(-c2ccc(C(F)(F)F)c(F)c2)n1)N1CC(=O)N2CCc3ccccc3C2C1` (stereo not drawn) [Compound 104], the pIC50 on human TRPA1 (setting [3]) was < 4.60.

Turning to `O=C(c1cc(-c2ccncc2)n(-c2cc(C(F)(F)F)cc(C(F)(F)F)c2)n1)N1CCC(n2c(=O)[nH]c3ccccc32)CC1` [Compound 159], the pIC50 at human TRPA1 (setting [3]) was 4.60 to 5.30.

For `O=C(c1cc(-c2ccncc2)n(-c2ccc(C(F)(F)F)c(F)c2)n1)N1CCC2(CC1)C(=O)NCN2c1ccc(F)cc1` [Compound 99], the pIC50 at human TRPA1 (setting [3]) was 5.30 to 9.00.

On to `O=C(c1cc(-c2cccnc2)n(-c2ccc(OC(F)(F)F)cc2)n1)N1CCC(n2c(=O)[nH]c3ccc(F)c(F)c32)CC1` [Compound 220], for which the pIC50 on human TRPA1 (setting [3]) is 5.30 to 9.00.

With `O=C(c1cc(-c2ccncc2)n(-c2ccccc2)n1)N1CC2(CCCC2)C1` [Compound 6], on human TRPA1 (setting [3]), the pIC50 was < 4.60.

On to `O=C(c1cc(-c2ccncc2)n(-c2ccc(F)c(F)c2)n1)N1CCC(c2nc3ccccc3o2)CC1` [Compound 87], for which the pIC50 on human TRPA1 (setting [3]) was < 4.60.

As for `O=C(c1cc(-c2cccnc2)n(-c2ccc(C(F)(F)F)c(F)c2)n1)N1CCC2(CC1)C(=O)NCN2c1ccc(I)cc1` [Compound 183], the pIC50 on human TRPA1 (setting [3]) is < 4.60.

For `O=C(c1cc(-c2ccncc2)n(-c2ccc(C(F)(F)F)cc2)n1)N1CCC(N2C(=O)Cc3ccccc32)CC1` [Compound 54], the pIC50 on human TRPA1 was < 4.60.

Take `CN1C(=O)NC2(CCN(C(=O)c3cc(-c4ccncc4)n(-c4ccc(F)c(F)c4)n3)CC2)C1=O` [Compound 97]: the pIC50 at human TRPA1 (setting [3]) was < 4.60.

In the case of `O=C(c1cc(-c2ccncc2)n(-c2ccc(F)c(F)c2)n1)N1CCC2(CC1)C(=O)NCN2c1ccccc1` [Compound 149], at human TRPA1 (setting [3]), the pIC50 was 4.60 to 5.30.

With `O=C(Nc1ccc2c(c1)OC(F)(F)O2)c1cc(-c2ccncc2)n(-c2cnccn2)n1` [Compound 130], the pIC50 at human TRPA1 (setting [3]) is 4.60 to 5.30.

As for `CN1C(=O)NC2(CCN(C(=O)c3cc(-c4ccncc4)n(-c4ccccc4)n3)CC2)C1=O` [Compound 174], at human TRPA1 (setting [3]), the pIC50 is < 4.60.

Regarding `Cc1cc(N2CNC(=O)C23CCN(C(=O)c2cc(-c4cccnc4)n(-c4ccc(F)c(C#N)c4)n2)CC3)cc(C)c1F` [Compound 249], the pIC50 on human TRPA1 (setting [3]) was 5.30 to 9.00.

Consider `O=C(c1cc(-c2ccncc2)n(-c2cc(F)c(F)c(F)c2)n1)N1CCC(n2c(=O)[nH]c3ccc(F)c(F)c32)CC1` [Compound 175], for which, in test [1], the “% MPE (% Maximum Possible Effect)” value is on record as 59 ± 10 (3) ^ %; the “anti-allodynic effect on paw withdrawal threshold and % MPE” value is on record as “significant anti-allodynic effect”. Moreover, on human TRPA1 (setting [3]), the pIC50 was 5.30 to 9.00.

For the compound `O=C(c1cc(-c2cccnc2)n(-c2cc(F)c(F)c(F)c2)n1)N1CCC(n2c(=O)[nH]c3cccnc32)CC1` [Compound 208], the pIC50 at human TRPA1 (setting [3]) was 5.30 to 9.00.

Consider `O=C(c1cc(-c2ccncc2)n(-c2ccc(F)cc2F)n1)N1CCC2(CC1)OCCO2` [Compound 154], for which the pIC50 on human TRPA1 is < 4.60.

These data come from patent US9951046B2, “TRPA1 modulators” (Algomedix, Inc., priority 2014, dated 2018).
